Legend:
HIV-1 TAR = test: ITC of dCA binding to TAR; settings: 25°C
Source text: FIG 6 dCA binding to Tat disrupts Tat-TAR interaction. (A) EMSA of full-length Tat with TAR in the presence of dCA. Raltegravir (Ralt.) and deleted bulge TAR (ΔTAR) were used as negative controls. Data are representative of n = 3 independent experiments. (B) EMSA of Tat’s basic domain with TAR in the presence of increasing concentrations of dCA to Tat’s basic peptide. Pep B is a peptide encompassing the basic domain of HIV Tat (^45ISYGRKKRRQRRRAP^59). Pep C (^69LSKQPASQPRGDPTG^83) and unlabeled or cold TAR (TARc) were used as negative controls. Neomycin, which binds to Tat and TAR, was used as a positive control. Ratios of compounds (or TARc) concentrations to peptide are shown. Data are representative of n = 3 independent experiments. […] Shown are ITC results from binding of dCA (left) or Tat peptide (right) to TAR at 25°C. […] Luciferase activity was determined relative to protein concentration (Bradford assay) (Fig. S9A). […] Statistical significance was determined using one-way ANOVA with post hoc Tukey’s test with 3 technical replicates. ns, not significant; ***, P < 0.0001. […]
Isothermal titration calorimetry. […] Each injection generated a heat burst curve (microcalories/second vs. seconds) and the area under each curve was determined by integration [using the origin version 7.0 software (Microcal, Inc.; Northampton, MA)] to obtain the measure of the heat associated with that injection.

[1] = test system: NL4-3 strain in CDK8/CDK19 knockdown cells; test: NL4-3 infection of CDK8/CDK19 knockdown HeLa CD4 cells; format: cell-based, HIV-1; settings: dCA 200 nM, CDK8, CDK19 or CDK8/CDK19 knockdown; viral mRNA and p24
Protocol: The only other known ligand for dCA is CDK8. […] As such, virus-like particles (VLPs) expressing short hairpin RNAs (shRNAs) against CDK8, CDK19, CDK8/CDK19, or the shRNA control were transduced into HeLa CD4 cells. Stabilization of the knockdown was performed by puromycin selection of the populations over a 2-week period. Both RT-qPCR and Western blotting confirmed successful knockdown of CDK8/CDK19 proteins (Fig. 4A and B). These cells were then infected with NL4-3 and treated or not with dCA, and production of viral RNA and p24 in the supernatant were assessed 72 hours later. […]
HeLa CD4 cells were transduced with VLPs expressing shRNAs against CDK8, CDK19, or both and puromycin selected to stabilize knockdown (KD). […], mRNA, DNA, and p24 capsid in supernatant were collected and measured. (A and B) CDK8 mRNA and CDK19 mRNA expression was assessed by qRT-PCR and normalized to GAPDH mRNA. […] (C) Protein expression of CDK8 and CDK19 was analyzed 72 hours postinfection by Western blotting. […] (D) Viral mRNA production measured by qRT-PCR using primers against the Nef region was measured as a function of total integrated proviral DNA. […] Statistical significance was determined using one-way ANOVA with post hoc Tukey’s test. ns, not significant; ns^a, DMSO KD CDK19 versus dCA KD CDK19. *, P < 0.01; ***, P < 0.0001; **, P < 0.001. […]

Structure (SMILES): CN(C)C1CC23CCC4(O2)C(=CCC2(C)C(c5ccc6ccncc6c5)=CCC24)C=C3C(O)C1O (centres unmarked) [dCA, didehydro-cortistatin A]
- binding to TAR (ITC) (HIV-1 TAR): does not bind to TAR
- dependence of anti-HIV activity on CDK8 [1]: does not mediate its anti-HIV activity through CDK8 inhibition

Source: PMC6368365, “Didehydro-Cortistatin A Inhibits HIV-1 by Specifically Binding to the Unstructured Basic Region of Tat” (mBio, 2019)
